Measurements reported in patent US10865191B2, “Heterocyclic compounds useful as modulators of TNF alpha” (BRISTOL-MYERS SQUIBB COMPANY, priority 2015, dated 2020).
pIC50: −log10 of the molar value.

These compounds were tested against TNFα (Homo sapiens, UniProt P01375) (assay: TNF induced HEK-Blue assay (NF-kB-driven secreted alkaline phosphatase reporter)). Conditions: TNFα 0.5 ng/mL, HEK-Blue-CD40L cells, 18 h; read-out: TNF induced HEK-Blue assay IC50 value.
Assay type: cell-based
Outline: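 HEK-Blue-CD40L cells (NF-kB-driven SEAP reporter), 20,000/well, added after 30 min pre-incubation of compound (0.004–25 μM final) with TNFα 0.5 ng/mL final at 37 °C; 18 h incubation. SEAP read with QUANTI-Blue at 620 nm; IC50 from 4-parameter logistic fit, normalized to unstimulated and stimulated DMSO controls.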

Chain of TNFα (P01375 77-233 limits assumed): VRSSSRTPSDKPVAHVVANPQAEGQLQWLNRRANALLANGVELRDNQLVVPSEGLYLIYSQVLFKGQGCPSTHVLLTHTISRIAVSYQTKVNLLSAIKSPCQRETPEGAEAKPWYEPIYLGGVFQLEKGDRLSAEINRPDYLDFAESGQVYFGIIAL

`Cc1ccc(C)c(Nc2c(Cl)c(CN=[N+]=[N-])nc3ccc(-c4ccc(C#N)nc4)cc23)c1` [Example 42, 5-(2-(azidomethyl)-3-chloro-4-((2,5-dimethylphenyl)amino)quinolin-6-yl)picolinonitrile] and `Cc1ccc(C)c(Nc2c(Cl)c(CN)nc3ccc(-c4ccc(C#N)nc4)cc23)c1` [Example 43, 5-(2-(aminomethyl)-3-chloro-4-((2,5-dimethylphenyl)amino)quinolin-6-yl)picolinonitrile] fall in the same range of pIC50: 5.00 to 6.00 for the first, 5.00 to 6.00 for the second.

`Cc1ccc(C)c(Nc2c(Cl)c(CO)nc3ccc(-c4cnc(C(C)(C)O)nc4)cc23)c1` [Example 44, 2-(5-(3-chloro-4-((2,5-dimethylphenyl)amino)-2-(hydroxymethyl)quinolin-6-yl)pyrimidin-2-yl)propan-2-ol] and `Cc1ccc(C)c(Nc2c(Cl)c(N)nc3ccc(-c4cnc(NCC(C)(C)O)nc4)cc23)c1` [Example 69, 1-((5-(2-amino-3-chloro-4-((2,5-dimethylphenyl)amino)quinolin-6-yl)pyrimidin-2-yl)amino)-2-methylpropan-2-ol] cannot be ordered by pIC50: over 6.00 for the first, over 6.00 for the second.

`Cc1ccc(C)c(Nc2c(Cl)c(N)nc3ccc(-c4cnc(N5CCN(CC(=O)O)CC5)nc4)cc23)c1` [Example 45, 2-(4-(5-(2-amino-3-chloro-4-((2,5-dimethylphenyl)amino)quinolin-6-yl)pyrimidin-2-yl)piperazin-1-yl)acetic acid] and `Cc1ccc(C)c(Nc2c(Cl)c(N)nc3ccc(-c4cnc(N5CCNC(=O)C5)nc4)cc23)c1` [Example 72, 4-(5-(2-amino-3-chloro-4-((2,5-dimethylphenyl)amino)quinolin-6-yl)pyrimidin-2-yl)piperazin-2-one] cannot be ordered by pIC50: over 6.00 for the first, over 6.00 for the second.

First: CC(Nc1c(Cl)c(N)nc2ccc(-c3cnc(N4CCN(CC(=O)O)CC4)nc3)cc12)c1ccccc1F (stereo not drawn) [Example 46, 2-(4-(5-(2-amino-3-chloro-4-((1-(2-fluorophenyl)ethyl)amino)quinolin-6-yl)pyrimidin-2-yl)piperazin-1-yl) acetic acid]
Second: C[C@@H](Nc1c(Cl)cnc2ccc(-c3ccc(N4CCN(CC(=O)O)C(=O)C4)nc3)cc12)c1ccccc1F [Example 81, (R)-2-(4-(5-(3-chloro-4-((1-(2-fluorophenyl)ethyl)amino)quinolin-6-yl)pyridin-2-yl)-2-oxopiperazin-1-yl)acetic acid]
The pIC50 of the first is higher: over 6.00 for the first, 5.00 to 6.00 for the second.

`CC(C)(O)c1ncc(-c2ccc3ncc(Cl)c(NN4CCc5ccccc54)c3c2)cn1` [Example 47, 2-(5-(3-chloro-4-(indolin-1-ylamino)quinolin-6-yl)pyrimidin-2-yl)propan-2-ol] and `CN(Nc1c(Cl)cnc2ccc(-c3cnc(C(C)(C)O)nc3)cc12)c1ccccc1` [Example 54, 2-(5-(3-chloro-4-(2-methyl-2-phenylhydrazinyl)quinolin-6-yl)pyrimidin-2-yl)propan-2-ol] cannot be ordered by pIC50: over 6.00 for the first, over 6.00 for the second.

Compared with `C[C@@H](Nc1c(Cl)cnc2ccc(-c3cnc(C(C)(C)O)nc3)cc12)c1cc(Cl)ncc1F` [Example 53, (R)-2-(5-(3-chloro-4-((1-(2-chloro-5-fluoropyridin-4-yl)ethyl)amino)quinolin-6-yl)pyrimidin-2-yl)propan-2-ol], `C=CC[C@@H](Nc1c(Cl)cnc2ccc(-c3cnc(C(C)(C)O)nc3)cc12)c1cc(Cl)ccn1` [Example 63, (R)-2-(5-(3-chloro-4-((1-(4-chloropyridin-2-yl)but-3-en-1-yl)amino)quinolin-6-yl)pyrimidin-2-yl)propan-2-ol] is higher in pIC50: 5.00 to 6.00 for the first, over 6.00 for the second. The second is the more potent here.

Compared with `CC(C)(O)c1ncc(-c2ccc3ncc(Cl)c(NCc4ccc(Br)cc4-n4cccn4)c3c2)cn1` [Example 56, 2-(5-(4-((4-bromo-2-(1H-pyrazol-1-yl)benzyl)amino)-3-chloroquinolin-6-yl)pyrimidin-2-yl)propan-2-ol], `CN(Cc1c(Cl)cnc2ccc(-c3cnc(C(C)(C)O)nc3)cc12)c1ccccc1F` [Example 67, 2-(5-(3-chloro-4-(((2-fluorophenyl)(methyl)amino)methyl)quinolin-6-yl)pyrimidin-2-yl)propan-2-ol] is higher in pIC50: 4.60 to 5.00 for the first, 5.00 to 6.00 for the second.

First: C[C@@H](Nc1c(Cl)cnc2ccc(-c3cnc(C(C)(C)O)nc3)cc12)C1CCCCC1 [Example 58, (R)-2-(5-(3-chloro-4-((1-cyclohexylethyl)amino)quinolin-6-yl)pyrimidin-2-yl)propan-2-ol]
Second: C[C@H](Nc1c(Cl)cnc2ccc(-c3cnc(C(C)(C)O)nc3)cc12)C1CCCCC1 [Example 59, (S)-2-(5-(3-chloro-4-((1-cyclohexylethyl)amino)quinolin-6-yl)pyrimidin-2-yl)propan-2-ol]
The pIC50 of the first is higher: over 6.00 for the first, 4.60 to 5.00 for the second.

First: Cc1ccc(C)c(Nc2c(Cl)c(C)nc3ccc(-c4ccc(C(=O)NCCCCN)nc4)cc23)c1 [Example 65, N-(4-aminobutyl)-5-(3-chloro-4-((2,5-dimethylphenyl)amino)-2-methylquinolin-6-yl) picolinamide]
Second: Cc1ccc(C)c(Nc2c(Cl)c(N)nc3ccc(-c4cnc(NCCO)nc4)cc23)c1 [Example 70, 2-((5-(2-amino-3-chloro-4-((2,5-dimethylphenyl)amino)quinolin-6-yl)pyrimidin-2-yl)amino)ethan-1-ol]
The pIC50 of the first is lower: 5.00 to 6.00 for the first, over 6.00 for the second. The second is the more potent here.

First: CCN(Cc1c(Cl)cnc2ccc(-c3cnc(C(C)(C)O)nc3)cc12)c1ccccc1 [Example 66, 2-(5-(3-chloro-4-((ethyl(phenyl)amino)methyl)quinolin-6-yl)pyrimidin-2-yl)propan-2-ol]
Second: CCN(Cc1c(Cl)cnc2ccc(-c3cnc(C(C)(C)O)nc3)cc12)c1ccccc1F [Example 68, 2-(5-(3-chloro-4-((ethyl(2-fluorophenyl)amino)methyl)quinolin-6-yl)pyrimidin-2-yl)propan-2-ol]
The pIC50 of the first is lower: 5.00 to 6.00 for the first, over 6.00 for the second.

`Cc1ccc(C)c(Nc2c(Cl)c(N)nc3ccc(-c4cnc(NC(CO)CO)nc4)cc23)c1` [Example 71, 2-((5-(2-amino-3-chloro-4-((2,5-dimethylphenyl)amino)quinolin-6-yl)pyrimidin-2-yl)amino)propane-1,3-diol] and `CC(C)(O)CNc1ncc(-c2ccc3ncc(Cl)c(N[C@@H](c4ccccc4F)C(F)F)c3c2)cn1` [Example 80, (S)-1-((5-(3-chloro-4-((2,2-difluoro-1-(2-fluorophenyl)ethyl)amino)quinolin-6-yl)pyrimidin-2-yl)amino)-2-methylpropan-2-ol] cannot be ordered by pIC50: over 6.00 for the first, over 6.00 for the second.

Compared with `O=C(O)[C@@H]1CN(c2ncc(-c3ccc4ncc(Cl)c(N[C@@H](c5ccccc5F)C(F)F)c4c3)cn2)CCN1` [Example 74, (S)-4-(5-(3-chloro-4-(((S)-2,2-difluoro-1-(2-fluorophenyl)ethyl)amino)quinolin-6-yl)pyrimidin-2-yl)piperazine-2-carboxylic acid], `OC[C@@H]1CN(c2ncc(-c3ccc4ncc(Cl)c(N[C@@H](c5ccccc5F)C(F)F)c4c3)cn2)CCN1` [Example 86, ((S)-4-(5-(3-chloro-4-(((S)-2,2-difluoro-1-(2-fluorophenyl)ethyl)amino)quinolin-6-yl)pyrimidin-2-yl)piperazin-2-yl)methanol] is higher in pIC50: 5.00 to 6.00 for the first, over 6.00 for the second.

`NC1(C(=O)O)CCN(c2ncc(-c3ccc4ncc(Cl)c(N[C@@H](c5ccccc5F)C(F)F)c4c3)cn2)CC1` [Example 75, (S)-4-amino-1-(5-(3-chloro-4-((2,2-difluoro-1-(2-fluorophenyl)ethyl)amino)quinolin-6-yl)pyrimidin-2-yl)piperidine-4-carboxylic acid] and `O=C(O)CC1CCN(c2ncc(-c3ccc4ncc(Cl)c(N[C@@H](c5ccccc5F)C(F)F)c4c3)cn2)CC1` [Example 78, (S)-2-(1-(5-(3-chloro-4-((2,2-difluoro-1-(2-fluorophenyl)ethyl)amino)quinolin-6-yl)pyrimidin-2-yl)piperidin-4-yl)acetic acid] cannot be ordered by pIC50: over 6.00 for the first, over 6.00 for the second.

`O=C(O)CN1CCN(c2ncc(-c3ccc4ncc(Cl)c(N[C@@H](c5ccccc5F)C(F)F)c4c3)cn2)CC1=O` [Example 76, (S)-2-(4-(5-(3-chloro-4-((2,2-difluoro-1-(2-fluorophenyl)ethyl)amino)quinolin-6-yl)pyrimidin-2-yl)-2-oxopiperazin-1-yl)acetic acid] and `O=C1CN(c2ncc(-c3ccc4ncc(Cl)c(N[C@@H](c5ccccc5F)C(F)F)c4c3)cn2)CCN1` [Example 79, (S)-4-(5-(3-chloro-4-((2,2-difluoro-1-(2-fluorophenyl)ethyl)amino)quinolin-6-yl)pyrimidin-2-yl)piperazin-2-one] cannot be ordered by pIC50: over 6.00 for the first, over 6.00 for the second.

`C[C@@H](Nc1c(Cl)cnc2ccc(-c3ccc(N4CCC(CC(=O)O)CC4)nc3)cc12)c1ccccc1F` [Example 82, (R)-2-(1-(5-(3-chloro-4-((1-(2-fluorophenyl)ethyl)amino)quinolin-6-yl)pyridin-2-yl)piperidin-4-yl)acetic acid] and `C[C@@H](Nc1c(Cl)cnc2ccc(-c3ccc(N4CCO[C@@H](CO)C4)nc3)cc12)c1ccccc1F` [Example 83, ((R)-4-(5-(3-chloro-4-(((R)-1-(2-fluorophenyl)ethyl)amino)quinolin-6-yl)pyridin-2-yl)morpholin-2-yl)methanol] cannot be ordered by pIC50: over 6.00 for the first, over 6.00 for the second.

Compared with `C[C@@H](Nc1c(Cl)cnc2ccc(-c3ccc(N4CCN[C@H](CO)C4)nc3)cc12)c1ccccc1F` [Example 84, ((S)-4-(5-(3-chloro-4-(((R)-1-(2-fluorophenyl)ethyl)amino)quinolin-6-yl)pyridin-2-yl)piperazin-2-yl)methanol], `C[C@@H](Nc1c(Cl)cnc2ccc(-c3ccc(N4CCOC[C@H]4CO)nc3)cc12)c1ccccc1F` [Example 85, ((R)-4-(5-(3-chloro-4-(((R)-1-(2-fluorophenyl)ethyl)amino)quinolin-6-yl)pyridin-2-yl)morpholin-3-yl)methanol] is lower in pIC50: over 6.00 for the first, 5.00 to 6.00 for the second. The first is the more potent here.

`OC[C@@H]1CN(c2ncc(-c3ccc4ncc(Cl)c(N[C@@H](c5ccccc5F)C(F)F)c4c3)cn2)CCO1` [Example 87, ((S)-4-(5-(3-chloro-4-(((S)-2,2-difluoro-1-(2-fluorophenyl)ethyl)amino)quinolin-6-yl)pyrimidin-2-yl)morpholin-2-yl)methanol] was tested, and the pIC50 was over 6.00.
